What was measured:
Type in all cases: biochemical
SIRT1 [1] = target: T1, SIRT1 (Homo sapiens, UniProt Q96EB6); test: Fluorescence polarization assay of SIRT1 activity (p53-based peptide substrate); conditions: activation of SIRT1; peptide 1 for Compounds 1-18, peptide 2 for Compounds 19-164; read-out: ED50 FP
T1 sequence (Q96EB6 1-747): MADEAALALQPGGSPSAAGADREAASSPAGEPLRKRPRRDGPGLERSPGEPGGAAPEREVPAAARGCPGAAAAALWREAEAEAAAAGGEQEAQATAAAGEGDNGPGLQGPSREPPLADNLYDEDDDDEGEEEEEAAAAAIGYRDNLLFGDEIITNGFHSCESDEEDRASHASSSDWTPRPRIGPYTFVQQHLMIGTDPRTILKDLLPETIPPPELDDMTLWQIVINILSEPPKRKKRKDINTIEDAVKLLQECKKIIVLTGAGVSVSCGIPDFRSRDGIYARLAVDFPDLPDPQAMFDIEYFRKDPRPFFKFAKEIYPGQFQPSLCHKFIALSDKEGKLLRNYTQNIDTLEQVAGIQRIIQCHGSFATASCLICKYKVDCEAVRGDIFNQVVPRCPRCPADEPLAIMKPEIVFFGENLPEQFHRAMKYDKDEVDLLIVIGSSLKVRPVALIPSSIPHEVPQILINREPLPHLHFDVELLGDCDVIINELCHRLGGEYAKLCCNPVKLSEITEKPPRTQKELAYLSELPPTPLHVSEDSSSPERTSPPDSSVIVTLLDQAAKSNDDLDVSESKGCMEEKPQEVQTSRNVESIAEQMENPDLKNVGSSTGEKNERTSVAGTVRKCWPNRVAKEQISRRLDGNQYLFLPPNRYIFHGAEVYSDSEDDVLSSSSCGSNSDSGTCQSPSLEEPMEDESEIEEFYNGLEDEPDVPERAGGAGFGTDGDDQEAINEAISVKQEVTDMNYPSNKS
Experimental: A fluorescence polarization or mass spectrometry based assay was used to identify modulators of SIRT1 activity. The same assay may be used to identify modulators of any sirtuin protein. The fluorescence polarization assays utilizes one of two different peptides based on a fragment of p53, a known sirtuin deacetylation target. Compounds 1-18 were tested using a substrate containing peptide 1 having 20 amino acid residues as follows: Ac-EE-K(biotin)-[…](Ac)NleSTEG-K(M121)-EE-NH2 (SEQ ID NO: 1) wherein K(biotin) is a biotinolated lysine residue, K(Ac) is an acetylated lysine residue, Nle is norleucine and K(MR121) is a lysine residue modified by an MR121 fluorophore. This peptide is labeled with the fluorophore MR121 (excitation 635 nm/emission 680 nm) at the C-termini and biotin at the N-termini. The sequence of the peptide substrates are based on p53 with several modifications. In particular, all arginine and […] residues other than the acetylated lysine residues have replaced with serine so that the peptides are not susceptible to trypsin cleavage in the absence of deacetylation. In addition, the methionine residues naturally present in the sequences have been replaced with the norleucine because the methionine may be susceptible to oxidation during synthesis and purification. […] The peptide is labeled with the fluorophore 5TMR (excitation 540 nm/emission 580 nm) at the C-terminus. The sequence of the peptide substrate is also based on p53 with several modifications. In addition, the methionine residue naturally present in the sequence was replaced with the norleucine because the methionine may be susceptible to oxidation during synthesis and purification.
The peptide substrates were exposed to a sirtuin protein in the presence of NAD^+ to allow deacetylation of the substrate and render it sensitive to cleavage by trypsin. Trypsin was then added and the reaction was carried to completion (i.e., the deacetylated substrate is cleaved) releasing the MR121 or 5TMR fragment. Streptavidin is then added to the reaction where it can bind both the uncleaved substrate (i.e., any remaining acetylated substrate) and the non-fluorescent portion of the cleaved peptide substrate (i.e., the biotin containing fragment). The fluorescence polarization signal observed for the full length peptide substrates bound to streptavidin was higher than the fluorescence polarization signal observed for the released MR121 or 5TMR C-terminal fragment. In this way, the fluorescence polarization obtained is inversely proportional to the level of deacetylation (e.g., the signal is inversely proportional to the activity of the sirtuin protein). Results were read on a microplate fluorescence polarization reader (Molecular Devices Spectramax MD) with appropriate excitation and emission filters.
The fluorescence polarization assays using peptide 1 is conducted as follows: 0.5 μM peptide substrate and 150 μM βNAD^+ is incubated with 0.1 μg/mL of SIRT1 for 60 minutes at 37° C. in a reaction buffer (25 mM Tris-acetate pH8, 137 mM Na—Ac, 2.7 mM K—Ac, 1 mM Mg—Ac, 0.05% Tween-20, 0.1% Pluronic F127, 10 mM CaCl2, 5 mM DTT, 0.025% BSA, 0.15 mM Nicotinamide). Test compounds 1-18 were solubilized in DMSO and added to the reaction at 11 concentrations ranging from 0.7 μM to 100 μM.
Fluorescence polarization assays using peptide 2 is conducted as follows: 0.5 μM peptide substrate and 120 μM βNAD^+ were incubated with 3 nM SIRT1 for 20 minutes at 25° C. in a reaction buffer (25 mM Tris-acetate pH8, 137 mM Na—Ac, 2.7 mM K—Ac, 1 mM Mg—Ac, 0.05% Tween-20, 0.1% Pluronic F127, 10 mM CaCl2, 5 mM DTT, 0.025% BSA). Test compounds 19-56 were solubilized in DMSO and added to the reaction at 10 concentrations ranging from 300 μM to 0.15 μM in three-fold dilutions.
After the incubation with SIRT1, nicotinamide was added to the reaction to a final concentration of 3 mM to stop the deacetylation reaction and 0.5 μg/mL of trypsin was added to cleave the deacetylated substrate. […]

SIRT1 [2] = target: T1, SIRT1; test: Mass spectrometry based assay of SIRT1 activity; set-up: key to FOLD ACTIVATION MS: A: Fold activation >250%; B: Fold Activation <250%; C: no fold activation; conditions: for EC50: activation of SIRT1, read-out: ED50 MS
Experimental: The mass spectrometry based assay utilizes a peptide having 20 amino acid residues as follows: […] The sequence of the peptide substrate is based on p53 with several modifications. […] Test compounds may be added to the reaction as described above. […] After the 25 minute incubation with SIRT1, 10 μL of 10% formic acid is added to stop the reaction. Reactions are sealed and frozen for later mass spec analysis. Determination of the mass of the substrate peptide allows for precise determination of the degree of acetylation (i.e. starting material) as compared to deacetylated peptide (product). […] This timepoint is the same as that used for test compounds and, within the linear range, the endpoint represents a change in velocity. For each of the above assays, SIRT1 protein was expressed and purified as follows. The SirT1 gene was cloned into a T7-promoter containing vector and transformed into BL21(DE3). The protein was expressed by induction with 1 mM IPTG as an N-terminal His-tag fusion protein at 18° C. overnight and harvested at 30,000×g. […] The protein was purified over a Ni-NTA column (Amersham) and fractions containing pure protein were pooled, concentrated and run over a sizing column (Sephadex S200 26/60 global). The peak containing soluble protein was collected and run on an Ion-exchange column (MonoQ). […] This protein was concentrated and dialyzed against dialysis buffer (20 mM Tris-HCl, 2 mM TCEP) overnight. The protein was aliquoted and frozen at −80° C. until further use.

SIRT1 [3] = target: T1, SIRT1; test: SIRT1 fluorescence polarization or mass spectrometry based assay (format not given); conditions: inhibition of SIRT1 (Table 5)

SMILES	EC50 (SIRT1 [1])	FOLD ACTIVATION MS (SIRT1 [2])	EC50 (SIRT1 [2])	IC50 (SIRT1 [3])
COc1cc(C(=O)Nc2cc(Cl)ccc2C(=O)O)ccc1OC(C)=O [Compound 10]	> 150 µM	–	–	–
N#Cc1ccc(C(=O)Nc2cccc(-c3nc4ncccc4o3)c2)cc1 [Compound 45]	> 150 µM	C	> 150 µM	–
COc1ccc(C(=O)Nc2cccc(-c3nc4ncccc4o3)c2)cc1OC [Compound 52]	< 50 µM	B (Fold Activation <250%)	< 50 µM	–
CCOc1cccc(C(=O)Nc2cc(OC)c(OC)cc2C(=O)O)c1 [Compound 8]	51 to 100 µM	–	–	–
O=C(Nc1ccccc1C(=O)O)c1cccc(C(=O)Nc2ccccc2C(=O)O)c1 [Compound 3]	51 to 100 µM	–	–	–
CN(C)c1cccc(C(=O)Nc2cccc(-c3nc4ncccc4o3)c2)c1 [Compound 42]	< 50 µM	B (Fold Activation <250%)	< 50 µM	–
O=C(Nc1cccc(-c2nc3ncccc3o2)c1)c1ccccc1 [Compound 56]	> 150 µM	B (Fold Activation <250%)	< 50 µM	–
CC(=O)Oc1ccc(C(=O)Nc2ccc(C(=O)O)cc2NC(=O)c2ccc(OC(C)=O)cc2)cc1 [Compound 14]	–	–	–	51 to 100 µM
COc1ccccc1C(=O)Nc1cccc(-c2nc3ncccc3o2)c1 [Compound 7]	< 50 µM	–	–	–
COc1cccc(C(=O)Nc2cccc(-c3nc4ncccc4o3)c2)c1C [Compound 49]	> 150 µM	B (Fold Activation <250%)	< 50 µM	–
COc1cccc(OC)c1C(=O)Nc1cccc(-c2nc3ncccc3o2)c1 [Compound 46]	> 150 µM	C	> 150 µM	–
COc1ccc(C(=O)Nc2cccc(-c3nc4ncccc4o3)c2)c(OC)c1OC [Compound 53]	> 150 µM	C	> 150 µM	–
CC1COCC(C)N1c1ccc(C(=O)NCc2cccc(CN)c2)cc1NC(=O)c1ccc2ccccc2c1 (stereo not shown) [Compound 9]	101 to 150 µM	–	–	–
COc1ccc(C(=O)Nc2cccc(-c3nc4ncccc4o3)c2)c(C(F)(F)F)c1 [Compound 40]	> 150 µM	C	> 150 µM	–
COc1ccc(C(=O)Nc2cccc(-c3nc4ncccc4o3)c2)c(OC)c1 [Compound 55]	< 50 µM	B (Fold Activation <250%)	< 50 µM	–
O=C(Nc1cccc(-c2nc3ncccc3o2)c1)c1ccc(N2CCCCC2)cc1 [Compound 39]	> 150 µM	C	> 150 µM	–
COc1ccccc1C(=O)Nc1cccc(NC(=O)c2ccco2)c1 [Compound 6]	> 150 µM	–	–	–
CN(C)c1ccc(C(=O)Nc2cccc(-c3nc4ncccc4o3)c2)cc1 [Compound 43]	< 50 µM	B (Fold Activation <250%)	< 50 µM	–
O=C(Nc1cc(NC(=O)c2ccccc2)c(C(=O)O)cc1C(=O)O)c1ccccc1 [Compound 2]	> 150 µM	–	–	–
O=C(Nc1cccc(-c2nc3ncccc3o2)c1)c1ccc(N2CCOCC2)cc1 [Compound 38]	> 150 µM	C	> 150 µM	–
N#Cc1cccc(C(=O)Nc2cccc(-c3nc4ncccc4o3)c2)c1 [Compound 44]	–	–	–	> 150 µM
O=C(Nc1cccc(-c2nc3ncccc3o2)c1)c1ccc(N2CCCC2)cc1 [Compound 47]	–	–	–	51 to 100 µM
COc1cc(NC(=O)c2cccc(Br)c2)c(C(=O)O)cc1OC [Compound 5]	51 to 100 µM	–	–	–
O=C(O)c1ccc(NC(=O)c2cccc(NC(=O)c3cccs3)c2)cc1 [Compound 13]	–	–	–	< 50 µM
CC(=O)Oc1cc(C(=O)Nc2ccccc2C(=O)O)cc(C(=O)Nc2ccccc2C(=O)O)c1 [Compound 1]	< 50 µM	–	–	–
COc1ccc(C(=O)Nc2cccc(-c3nc4ncccc4o3)c2)cc1C(F)(F)F [Compound 41]	> 150 µM	C	> 150 µM	–
COc1cc(C)ccc1C(=O)Nc1cccc(-c2nc3ncccc3o2)c1 [Compound 51]	< 50 µM	B (Fold Activation <250%)	< 50 µM	–
COc1cc(OC)c(C(=O)Nc2cccc(-c3nc4ncccc4o3)c2)c(OC)c1 [Compound 48]	> 150 µM	C	> 150 µM	–
